Experimental data from article PMC3197762 (Nature chemical biology, 2011).

Columns and labels:
[1] = tested on: HTLA cells not expressing a Tango receptor; experiment: Tango negative control, cells transfected with pEYFP-N1; assay type: cell-based, human
human V2 Tango receptor = human V2 Tango receptor (Homo sapiens, UniProt P30518); experiment: Tango control, human V2 Tango receptor; assay type: cell-based; conditions: data not shown

Compound	activity on HTLA cells not expressing a Tango receptor [1]	effect on HTLA cells expressing the human V2 Tango receptor (human V2 Tango receptor)
CN(C)CCCN1c2ccccc2Sc2ccc(Cl)cc21 [Chlorpromazine]	inactive	no effect
CCCN1CCC[C@@H]2Cc3n[nH]cc3C[C@H]21 [Quinpirole]	inactive	no effect
